Source: ChEMBL document CHEMBL1137297, “Synthesis and pharmacological evaluation of novel octahydro-1H-pyrido[1,2-a]pyrazine as mu-opioid receptor antagonists” (J Med Chem, 2006)
pIC50, pKi: −log10 of the molar value.

What was measured:
[1] = target: T1, Delta-type opioid receptor (Homo sapiens, UniProt P41143); test: Displacement of [3H]diprenorphine from human cloned delta opioid receptor expressed in CHO cells; assay type: cell-based
Mu-type opioid receptor [2] = target: T2, Mu-type opioid receptor (Homo sapiens, UniProt P35372); test: Antagonist activity assessed as inhibition of loperamide-stimulated [35S]GTPgammaS binding to human mu opioid receptor expressed in CHO cells; assay type: functional, cell-based
Mu-type opioid receptor [3] = target: T2, Mu-type opioid receptor; test: Displacement of [3H]diprenorphine from human cloned mu opioid receptor expressed in CHO cells; assay type: cell-based
[4] = target: T3, Kappa-type opioid receptor (Homo sapiens, UniProt P41145); test: Inhibition of [3H]diprenorphine binding to human cloned kappa opioid receptor expressed in CHO cells at 10 uM; assay type: cell-based
[5] = target: T1, Delta-type opioid receptor; test: Inhibition of [3H]diprenorphine binding to human cloned delta opioid receptor expressed in CHO cells at 10 uM; assay type: cell-based
Mu-type opioid receptor [6] = target: T2, Mu-type opioid receptor; test: Inhibition of [3H]diprenorphine binding to human cloned mu opioid receptor expressed in CHO cells at 10 uM; assay type: cell-based
[7] = target: T3, Kappa-type opioid receptor; test: Displacement of [3H]diprenorphine from human cloned kappa opioid receptor expressed in CHO cells; assay type: cell-based
[8] = target: T3, Kappa-type opioid receptor; test: Antagonist activity assessed as inhibition of U50488-stimulated [35S]GTP-gamma-S binding to human kappa opioid receptor expressed in CHO cells; assay type: functional, cell-based
[9] = target: T1, Delta-type opioid receptor; test: Antagonist activity assessed as inhibition of BW373U86-stimulated [35S]GTP-gamma-S binding to human delta opioid receptor expressed in CHO cells; assay type: functional, cell-based

T1 sequence (P41143 whole entry): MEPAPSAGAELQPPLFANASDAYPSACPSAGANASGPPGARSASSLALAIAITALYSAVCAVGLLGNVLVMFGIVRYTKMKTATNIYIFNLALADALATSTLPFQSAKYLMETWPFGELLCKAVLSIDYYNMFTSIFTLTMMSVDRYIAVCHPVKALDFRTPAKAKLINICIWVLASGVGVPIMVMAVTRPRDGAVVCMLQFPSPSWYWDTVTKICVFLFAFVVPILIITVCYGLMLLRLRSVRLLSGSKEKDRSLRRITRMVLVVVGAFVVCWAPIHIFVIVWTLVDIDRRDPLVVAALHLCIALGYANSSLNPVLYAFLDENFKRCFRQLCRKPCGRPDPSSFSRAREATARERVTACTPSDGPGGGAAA
T2 sequence (P35372 whole entry): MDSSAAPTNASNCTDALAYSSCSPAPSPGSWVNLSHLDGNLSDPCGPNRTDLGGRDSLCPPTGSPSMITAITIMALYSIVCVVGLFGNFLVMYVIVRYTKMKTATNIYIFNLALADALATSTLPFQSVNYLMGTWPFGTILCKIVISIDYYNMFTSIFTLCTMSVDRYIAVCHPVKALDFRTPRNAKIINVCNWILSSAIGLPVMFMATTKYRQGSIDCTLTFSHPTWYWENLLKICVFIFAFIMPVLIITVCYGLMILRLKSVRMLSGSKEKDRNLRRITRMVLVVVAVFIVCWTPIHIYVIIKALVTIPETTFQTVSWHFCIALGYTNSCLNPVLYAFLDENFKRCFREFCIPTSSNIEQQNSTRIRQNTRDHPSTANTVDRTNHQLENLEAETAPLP
T3 sequence (P41145 whole entry): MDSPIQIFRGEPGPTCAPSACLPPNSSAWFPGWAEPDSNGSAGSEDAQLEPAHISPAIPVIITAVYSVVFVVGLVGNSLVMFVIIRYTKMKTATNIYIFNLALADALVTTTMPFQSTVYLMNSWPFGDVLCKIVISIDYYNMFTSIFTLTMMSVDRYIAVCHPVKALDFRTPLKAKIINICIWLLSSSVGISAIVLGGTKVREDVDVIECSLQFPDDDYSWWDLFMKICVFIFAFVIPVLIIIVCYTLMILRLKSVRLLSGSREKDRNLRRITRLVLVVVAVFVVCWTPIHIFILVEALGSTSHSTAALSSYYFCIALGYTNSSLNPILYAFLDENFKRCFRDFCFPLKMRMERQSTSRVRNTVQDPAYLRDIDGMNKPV

Row | SMILES | pKi [1] | pIC50 (Mu-type opioid receptor [2]) | pKi (Mu-type opioid receptor [3]) | inhibition [4] [%] | inhibition [5] [%] | inhibition (Mu-type opioid receptor [6]) [%] | pKi [7] | pIC50 [8] | pIC50 [9]
1 | C[C@H]1CN2CCN(Cc3ccncc3)C[C@H]2C[C@@]1(C)c1cccc(O)c1 | 5.89 | 7.74 | 7.82 | 67 | – | – | – | – | –
2 | C[C@H]1CN2CCNC[C@H]2C[C@@]1(C)c1cccc(O)c1 | – | – | – | 46 | 35 | 49 | – | – | –
3 | C[C@H]1CN2CCN(Cc3ccnc4ccccc34)C[C@H]2C[C@@]1(C)c1cccc(O)c1 | – | 7.10 | 7.06 | 55 | 28 | – | – | – | –
4 | C[C@H]1CN2CCN(S(=O)(=O)c3ccccc3)C[C@H]2C[C@@]1(C)c1cccc(O)c1 | 5.77 | 6.85 | 6.68 | 34 | – | – | – | – | –
5 | C[C@H]1CN2C[C@H](c3ccccc3)N(Cc3ccccc3)C[C@H]2C[C@@]1(C)c1cccc(C(=O)O)c1 | 5.60 | – | – | 9 | – | 44 | – | – | –
6 | COC(=O)c1cccc([C@]2(C)C[C@@H]3CN(Cc4ccccc4)[C@@H](c4ccccc4)CN3C[C@@H]2C)c1 | – | – | – | 6 | 39 | 24 | – | – | –
7 | C[C@H]1CN2CCN(S(C)(=O)=O)C[C@H]2C[C@@]1(C)c1cccc(O)c1 | – | – | – | 14 | 5 | 45 | – | – | –
8 | C[C@H]1CN2C[C@H](c3ccccc3)N(Cc3ccccc3)C[C@H]2C[C@@]1(C)c1ccccc1 | – | – | – | 11 | 26 | – | – | – | –
9 | CC(=O)N1CCN2C[C@H](C)[C@](C)(c3cccc(O)c3)C[C@@H]2C1 | – | – | 6.28 | 36 | 47 | – | – | – | –
10 | Cc1ccccc1CN1CCN2C[C@H](C)[C@](C)(c3cccc(O)c3)C[C@@H]2C1 | 7.05 | 8.74 | 9.01 | – | – | – | 7.52 | 7.82 | 7.21
11 | C[C@H]1CN2C[C@H](C3CCCCC3)NC[C@H]2C[C@@]1(C)c1cccc(O)c1 | 7.17 | 8.89 | 8.57 | – | – | – | 7.80 | 8.92 | 7.55
12 | C[C@H]1CN2CCN(C)C[C@H]2C[C@@]1(C)c1cccc(O)c1 | – | – | – | 60 | 11 | 69 | – | – | –
13 | C[C@H]1CN2CCN(C(=O)CCc3ccccc3)C[C@H]2C[C@@]1(C)c1cccc(O)c1 | 6.85 | 7.11 | 6.80 | 65 | – | – | – | – | –
14 | C[C@H]1CN2CCN(Cc3ccc(N(C)C)cc3)C[C@H]2C[C@@]1(C)c1cccc(O)c1 | – | 6.72 | 6.12 | 34 | 26 | – | – | – | –
